Test results published in patent publication US8623414B2, “Compositions comprising a lipid and copolymer of styrene and maleic acid” (Malvren Cosmeceutics Limited, priority 2005, dated 2014).
Where a SMILES comes first, the peptide text is derived from it. The star is where a group is joined. Palmitoyl = CCCCCCCCCCCCCCCC(=O)*

Experiments:
[1] = Example 5 Supplemental: turbidity meter (Nephla) of compositions with active agents over time (Table 12a); format: physicochemical; conditions: SMA 3000P (hydrolysed) 2.5%, lipid 90H 1%; for clarity: key: Clear: categorised as being clear if there was no significant visible opacity to the naked eye; Cloudy: categorised as cloudy if there was significant visible disruption to the passage of light
Protocol: The turbidity meter was calibrated prior to use, with two known standards (0 and 40 FNU).
After the final stage of sample preparation (i.e. adjustment of the pH to physiological) samples were course filtered through Whatman 541 filter paper to remove any gross matter which could interfere with turbidity measurement. Immediately after filtration the first turbidity measurement was taken. Mixtures were stored at 4° C. following the initial measurement, and remeasured at later time points.

[2] = Example 5: compositions of the invention to solubilise exemplary active agents (visual clarity, pH on clearing, clarity at pH 7); conditions: SMA 3000HNa 2.5%, 90H 1%, S LPC 0.01%
Protocol: A stock emulsion of cosurfactant, membrane forming lipid and active was prepared at double the desired final concentration. Cosurfactant was dissolved in water while heating (approximately 50° C.) and stirring. Lipid was then added, followed by continued stirring and heating until a uniform emulsion is formed. The emulsion was then homogenised for 10 minutes. After re-heating to approximately 50° C. the active component was added slowly under stirring until a uniform emulsion was present. The final emulsion was then homogenised for a further 10 minutes.
Stock solutions were prepared by mixing of the hydrolysed polymer with the appropriate volume of water.
Polymer/lipid mixtures were then prepared by the dropwise addition of the lipid containing emulsion to an equal volume of polymer solution while stirring and heating to approximately 50° C.
The pH of the mixtures was adjusted to determine the critical pH level at which macromolecular assemblies formed, and whether the resulting clear and colourless solution would remain at physiological pH.
Percentage values specified in this experiment refer to the weight of the component in question as a proportion of the total weight of the composition.
Mixtures were visually examined to determine whether the polymer/lipid assemblies had solubilised the active agent in the aqueous medium. The clarity of a mixture was categorised as being clear if there was no significant visible opacity to the naked eye, whereas a mixture was categorised as cloudy if there was significant visible disruption to the passage of light.

[3] = Example 7: cosmetic gel preparation of Asc-P, clarity at pH 7; format: physicochemical; conditions: Solution A (hydrolysed SMA3000P 2.5%, 90H 1.0%, S-LPC 0.01%, Asc-P 0.1%, Phenonip 0.1%) mixed 1:1 with xanthan gum/carbopol gel
Protocol: The emulsion was then homogenised for 10 minutes.
Preservative was then added to the solution and the pH adjusted.
Xanthan gum and carbopol were mixed with water and stirred until a uniform gel was formed. The pH was then adjusted to 7.
Solution A and Solution B were then mixed in equal volumes to produce the final preparation.

[4] = S LPC 0.01%, active agent 0.25%
[5] = SL 30-3 0.05% (S LPC content 0.01%), active agent 0.80%
[6] = S LPC 0.01%, active agent 0.15%

CC(C)CCC[C@@H](C)[C@H]1CC[C@H]2C3=CC=C4C[C@@H](O)CC[C@]4(C)[C@H]3CC[C@]12C [7-DHC, 7-Dehydrocholesterol]
Clarity ([1]; S LPC 0.01%, active agent 0.1%): Clear
pH on clearing ([1]; S LPC 0.01%, active agent 0.1%): 8.91
Turbidity at pH 7 (FNU) ([1]; S LPC 0.01%, active agent 0.1%): 7.28 FNU

CCCCCCCCCCCCCCCC(=O)OC[C@H](O)[C@H]1OC(=O)C(O)=C1O [Asc-P, L-ascorbyl palmitate]
Clarity at pH 7 ([2]; active agent 0.1%): Clear
pH on clearing ([2]; active agent 0.1%): 8.87
Appearance of cosmetic preparation [3]: clear and colourless aqueous gel

COc1ccc(C(=O)CC(=O)c2ccc(C(C)(C)C)cc2)cc1 [Avobenzene]
Clarity ([1]; S LPC 0.01%, active agent 0.1%): Clear
pH on clearing ([1]; S LPC 0.01%, active agent 0.1%): 8.88
Turbidity at pH 7 (FNU) ([1]; S LPC 0.01%, active agent 0.1%): 62.0 FNU

CCCCCCCCCCCCCCCC(=O)OC[C@H](O)[C@H]1OC(=O)C(OC(=O)CCCCCCCCCCCCCCC)=C1O [CP]
Clarity ([2]; active agent 0.1%): Clear
Clarity at pH 7 ([2]; active agent 0.1%): Clear
pH on clearing ([2]; active agent 0.1%): 8.89

CC(C)CCC[C@@H](C)[C@H]1CC[C@H]2[C@@H]3CC=C4C[C@@H](OS(=O)(=O)O)CC[C@]4(C)[C@H]3CC[C@]12C [Chol Sulphate]
Clarity ([1]; S LPC 0.01%, active agent 0.1%): Clear
pH on clearing ([1]; S LPC 0.01%, active agent 0.1%): 8.81
Turbidity at pH 7 (FNU) ([1]; S LPC 0.01%, active agent 0.1%): 17.81 FNU

CC(C)CCC[C@@H](C)[C@H]1CC[C@H]2[C@@H]3CC=C4C[C@@H](O)CC[C@]4(C)[C@H]3CC[C@]12C [Chol, Cholesterol]
Clarity ([2]; active agent 0.1%): Clear
Clarity at pH 7 ([2]; active agent 0.1%): Clear
pH on clearing ([2]; active agent 0.1%): 8.95

CCCC(=O)O[C@]1(C(=O)CCl)[C@H](C)C[C@@H]2[C@@H]3CCC4=CC(=O)C=C[C@]4(C)[C@]3(F)C(=O)C[C@@]21C [Clo. But]
Clarity ([1]; S LPC 0.01%, active agent 0.1%): Clear
pH on clearing ([1]; S LPC 0.01%, active agent 0.1%): 8.94
Turbidity at pH 7 (FNU) ([1]; S LPC 0.01%, active agent 0.1%): 63.0 FNU

CCC(=O)O[C@]1(C(=O)CCl)[C@@H](C)C[C@H]2[C@@H]3CCC4=CC(=O)C=C[C@]4(C)[C@@]3(F)[C@@H](O)C[C@@]21C [Clo. P, Clobetasol Propionate, reference compound]
Clarity ([1]; S LPC 0.01%, active agent 0.1%): Clear
pH on clearing ([1]; S LPC 0.01%, active agent 0.1%): 8.85
Turbidity at pH 7 (FNU) ([1]; S LPC 0.01%, active agent 0.1%): 50 FNU

Clc1ccccc1C(c1ccccc1)(c1ccccc1)n1ccnc1 [Clot., Clotrimazole, reference compound]
Clarity ([1]; S LPC 0.01%, active agent 0.1%): Clear
pH on clearing ([1]; S LPC 0.01%, active agent 0.1%): 8.78
Turbidity at pH 7 (FNU) ([1]; S LPC 0.01%, active agent 0.1%): 5.91 FNU

CC(=O)OCC(=O)[C@@]1(O)CC[C@H]2[C@@H]3CCC4=CC(=O)CC[C@]4(C)[C@H]3C(=O)C[C@@]21C [Cort. A., Cortisone Acetate, reference compound]
Clarity [1, 4]: Clear
pH on clearing [1, 4]: 8.87
Turbidity at pH 7 (FNU) [1, 4]: 14.28 FNU

CC(=O)OCC(=O)[C@@]1(O)[C@H](C)C[C@H]2[C@@H]3CCC4=CC(=O)C=C[C@]4(C)[C@@]3(F)[C@@H](O)C[C@@]21C [DEX A.A., Dexamethasone Acetate Anhydrous, reference compound]
Clarity [1, 4]: Clear
pH on clearing [1, 4]: 8.84
Turbidity at pH 7 (FNU) [1, 4]: 10.52 FNU

CCCCC(CC)COC(=O)C=Cc1ccc(OC)cc1 (stereo not drawn) [Eusolex 2292, Octyl methoxycinimate]
Clarity ([1]; S LPC 0.01%, active agent 0.1%): Clear
pH on clearing ([1]; S LPC 0.01%, active agent 0.1%): 8.81
Turbidity at pH 7 (FNU) ([1]; S LPC 0.01%, active agent 0.1%): 24.50 FNU

COc1ccc(C(=O)c2ccccc2)c(O)c1 [Eusolex 4360, Benzophenone-3]
Clarity ([1]; S LPC 0.01%, active agent 0.1%): Clear
pH on clearing ([1]; S LPC 0.01%, active agent 0.1%): 8.96
Turbidity at pH 7 (FNU) ([1]; S LPC 0.01%, active agent 0.1%): 31.00 FNU

CC(=O)OCC(=O)[C@@]1(O)CC[C@H]2[C@@H]3CCC4=CC(=O)CC[C@]4(C)[C@H]3[C@@H](O)C[C@@]21C [HC A, Hydrocortisone Acetate, reference compound]
Clarity [1, 4]: Clear
pH on clearing [1, 4]: 8.92
Turbidity at pH 7 (FNU) [1, 4]: 39.6 FNU

CCCC(=O)O[C@]1(C(=O)CO)CC[C@H]2[C@@H]3CCC4=CC(=O)CC[C@]4(C)[C@H]3[C@@H](O)C[C@@]21C [HC But]
Clarity ([1]; S LPC 0.01%, active agent 0.1%): Clear
pH on clearing ([1]; S LPC 0.01%, active agent 0.1%): 8.86
Turbidity at pH 7 (FNU) ([1]; S LPC 0.01%, active agent 0.1%): 33.1 FNU

C[C@]12CCC(=O)C=C1CC[C@@H]1[C@@H]2[C@@H](O)C[C@@]2(C)[C@H]1CC[C@]2(O)C(=O)CO [HC, Hydrocortisone, reference compound]
Clarity [1, 4]: Clear
pH on clearing [1, 4]: 8.97
Turbidity at pH 7 (FNU) [1, 4]: 9.09 FNU

CC(=O)N1CCN(c2ccc(OCC3COC(Cn4ccnc4)(c4ccc(Cl)cc4Cl)O3)cc2)CC1 (stereo not drawn) [Keta., Ketaconazole, reference compound]
Clarity ([1]; S LPC 0.01%, active agent 0.1%): Clear
pH on clearing ([1]; S LPC 0.01%, active agent 0.1%): 8.63
Turbidity at pH 7 (FNU) ([1]; S LPC 0.01%, active agent 0.1%): 40.75 FNU
Clarity ([1]; S LPC 0.01%, active agent 0.4%): Clear
pH on clearing ([1]; S LPC 0.01%, active agent 0.4%): 8.83
Turbidity at pH 7 (FNU) ([1]; S LPC 0.01%, active agent 0.4%): 74.5 FNU

CCCCCCCCCCCCCCCC(=O)N[C@@H](CCCCN)C(=O)N[C@H](C(=O)N[C@H](C(=O)N[C@@H](CCCCN)C(=O)N[C@@H](CO)C(=O)O)[C@@H](C)O)[C@@H](C)O [Mat, palmityl-KTTKS] (Palmitoyl-KTTKS-OH; C-terminus assumed)
Clarity ([2]; active agent 0.5%): Clear
Clarity at pH 7 ([2]; active agent 0.5%): Clear
pH on clearing ([2]; active agent 0.5%): 8.86

CC(Cc1ccc(O)c(O)c1)C(C)Cc1ccc(O)c(O)c1 (stereo not drawn) [NDGA, Nordihydroguaiaretic acid]
Clarity ([1]; S LPC 0.01%, active agent 0.1%): Clear
pH on clearing ([1]; S LPC 0.01%, active agent 0.1%): 8.98
Turbidity at pH 7 (FNU) ([1]; S LPC 0.01%, active agent 0.1%): 27.7 FNU

NC[C@@H]1O[C@H](O[C@H]2[C@@H](O)[C@H](O[C@@H]3[C@@H](O)[C@H](N)C[C@H](N)[C@H]3O[C@H]3O[C@H](CN)[C@@H](O)[C@H](O)[C@H]3N)O[C@@H]2CO)[C@H](N)[C@@H](O)[C@@H]1O.O=S(=O)(O)O [Neo. Sulphate, Neomycin Sulphate, reference compound]
Clarity ([1]; S LPC 0.01%, active agent 0.1%): Clear
pH on clearing ([1]; S LPC 0.01%, active agent 0.1%): 8.82
Turbidity at pH 7 (FNU) ([1]; S LPC 0.01%, active agent 0.1%): 42.80 FNU

C[C@@H]1[C@H](O)[C@@H](C)/C=C/C=C/CC/C=C/C=C/C=C/C=C/C(O[C@H]2O[C@H](C)[C@@H](O)[C@H](N)[C@@H]2O)CC2O[C@](O)(CC(O)C(O)CCC(O)CC(O)CC(O)CC(=O)O[C@H]1C)CC(O)C2C(=O)O (stereo partly drawn) [Nystatin, reference compound]
Clarity ([1]; S LPC 0.01%, active agent 0.1%): Clear
pH on clearing ([1]; S LPC 0.01%, active agent 0.1%): 8.85
Turbidity at pH 7 (FNU) ([1]; S LPC 0.01%, active agent 0.1%): 6.93 FNU

Cc1cc(CC(C)CC(C)(C)C)n(O)c(=O)c1.NCCO (stereo not drawn) [Octopirox, Piroctone olamine]
Clarity [1, 5]: Clear
Turbidity at pH 7 (FNU) [1, 5]: 3.52 FNU

Nc1ccc(C(=O)O)cc1 [PABA, 4-Aminobenzoic acid]
Clarity ([1]; S LPC 0.01%, active agent 0.1%): Clear
pH on clearing ([1]; S LPC 0.01%, active agent 0.1%): 8.89
Turbidity at pH 7 (FNU) ([1]; S LPC 0.01%, active agent 0.1%): 23.20 FNU

CC(C)[C@@H]1CC[C@@H](C)C[C@H]1OC(=O)C1CCC(=O)N1 (stereo partly drawn) [Questice]
Clarity [1, 4]: Clear
pH on clearing [1, 4]: 8.84
Turbidity at pH 7 (FNU) [1, 4]: 28.9 FNU

CCCCCCCCCCCCCCCC(=O)OC/C=C(C)/C=C/C=C(C)/C=C/C1=C(C)CCCC1(C)C [Ret-P, Retinol palmitate]
Clarity ([2]; active agent 0.25%): Clear
Clarity at pH 7 ([2]; active agent 0.25%): Clear
pH on clearing ([2]; active agent 0.25%): 8.95

CC12CCC(C(=Cc3ccccc3)C1=O)C2(C)C (stereo not drawn) [Unisol S-22, 3-Benzylidene camphor]
Clarity [1, 6]: Clear
pH on clearing [1, 6]: 8.94
Turbidity at pH 7 (FNU) [1, 6]: 9.46 FNU

CCCCCCCCC(CCCCCC)C(=O)OC[C@H](OC(=O)C(CCCCCC)CCCCCCCC)[C@H]1OC(=O)C(OC(=O)C(CCCCCC)CCCCCCCC)=C1OC(=O)C(CCCCCC)CCCCCCCC (stereo partly drawn) [VC-IP]
Clarity ([2]; active agent 0.1%): Clear
Clarity at pH 7 ([2]; active agent 0.1%): Clear
pH on clearing ([2]; active agent 0.1%): 8.89

C=C1CC[C@H](O)C/C1=C/C=C1\CCC[C@]2(C)[C@@H]([C@H](C)CCCC(C)C)CC[C@@H]12 [Vitamin D3, Cholecalciferol, reference compound]
Clarity [1, 4]: Clear
pH on clearing [1, 4]: 8.59
Turbidity at pH 7 (FNU) [1, 4]: 19.78 FNU

CC1=C(/C=C/C(C)=C/C=C/C(C)=C/C=C/C=C(C)/C=C/C=C(C)/C=C/C2=C(C)CCCC2(C)C)C(C)(C)CCC1 [β-Car, β-carotene]
Clarity ([2]; active agent 0.1%): Clear
Clarity at pH 7 ([2]; active agent 0.1%): Clear
pH on clearing ([2]; active agent 0.1%): 8.83
Clarity ([2]; active agent 0.25%): Clear
Clarity at pH 7 ([2]; active agent 0.25%): Clear
pH on clearing ([2]; active agent 0.25%): 8.83

Ceramide IIIA
Clarity ([2]; active agent 0.1%): Clear
Clarity at pH 7 ([2]; active agent 0.1%): Clear
pH on clearing ([2]; active agent 0.1%): 8.89

Ceramide IIIB [Cera. IIIB]
Clarity ([1]; S LPC 0.01%, active agent 0.1%): Clear
pH on clearing ([1]; S LPC 0.01%, active agent 0.1%): 8.98
Turbidity at pH 7 (FNU) ([1]; S LPC 0.01%, active agent 0.1%): 120.7 FNU

Erythromycin Sulphate [Erythro., reference compound]
Clarity ([1]; S LPC 0.01%, active agent 0.1%): Clear
pH on clearing ([1]; S LPC 0.01%, active agent 0.1%): 8.86
Turbidity at pH 7 (FNU) ([1]; S LPC 0.01%, active agent 0.1%): 18.20 FNU

acetyl hexapeptide 3 [Argir]
Clarity at pH 7 ([2]; active agent 0.3%): Clear
